Measured values published in patent US12226479B2, “Methods and compositions of use of CD8+ tumor infiltrating lymphocyte subtypes and gene signatures thereof” (THE GENERAL HOSPITAL CORPORATION, priority 2017, dated 2025).

Test system: B16-F10
Experiment: Transplantable B16-F10 melanoma mouse model: tumor growth and survival under CD39 inhibitor and checkpoint antibodies
Source text: A schematic summary of the therapy regimen used in the transplantable B16-F10 mouse model (described in Methods). Mice were divided into four groups (n=10 per group): untreated (vehicle control), anti-TIM3, CD39 inhibitor (CD39i, using POM-1 small molecule) and anti-TIM3 in combination with CD39i. FIG. 26D. Box plots showing the kinetics of tumor growth between the different groups of mice on days +4, +7, +11, +14 and +18 post tumor transplantation. Data in box plots are means±SEM. P-value was determined by unpaired-student's t-test. FIG. 26E. Mean tumor volumes for all 4 groups are shown, means±SEM. FIG. 26F. Survival at day 30 of B16-F10 tumor-bearing mice for all 4 groups. Log-rank P-value is shown. Data shown for C-F represents one out of two independent experiments, n=10 for each group per experiment. ns—not significant.
To that end Applicants used the aggressive B16-F10 melanoma mouse model. Mice were treated with the small molecule POM-1 to block CD39 activity^38, alone or in combination with anti-TIM3 blocking antibodies (FIG. 26C).
Mice and tumor transplant. […] B16-F10 cells (0.5×10^6) were intradermally injected into the right flank using a 30 g needle and tumors were measured every 4 days in two dimensions using a digital caliper. Tumor volume (mm^3) was calculated using the following formula V=(L*W^2)/2 (V=volume, L=tumor length, tumor width). […]

With `O.[Na+].[Na+].[Na+].[Na+].[Na+].[Na+].[O]=[W](=[O])([O-])[O-].[O]=[W](=[O])([O-])[O-].[O]=[W](=[O])([O-])[O-].[O]=[W](=[O])=[O].[O]=[W](=[O])=[O].[O]=[W](=[O])=[O].[O]=[W](=[O])=[O].[O]=[W](=[O])=[O].[O]=[W](=[O])=[O].[O]=[W](=[O])=[O].[O]=[W](=[O])=[O].[O]=[W](=[O])=[O]` [POM-1, polyoxometalate-1] the “tumor growth / tumor size” value (B16-F10 intradermal tumors, CD39 inhibitor and/or anti-TIM3, versus untreated) was “transiently reduced tumor growth until day 14” and the “survival on day 30” value (B16-F10 tumor-bearing mice, n=10 per group, POM-1 5 mg/kg/day i.p., anti-TIM3 100 μg/dose i.p. every 3 days, from day 4) was 10%.
